Source: publication PMC9271048, “Probing strigolactone perception mechanisms with rationally designed small-molecule agonists stimulating germination of root parasitic weeds” (Nature Communications, 2022)
Where two headings read alike, the source gives them in different places.

Experiments:
ShHTL7 [1] = molecular target: T1, ShHTL7 (Striga hermonthica, UniProt A0A0M3PNA2); test: Competitive inhibition of ShHTL7 with Yoshimulactone Green (YLG) as substrate; type: biochemical
How it was run: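 YLG hydrolysis by ShHTL7 followed by fluorescence (ex 480/em 520 nm) every 1 min for 30 min; compounds and YLG from fresh DMSO stocks. After subtracting no-enzyme background, the linear 8-min increase was used; IC50 fitted from relative inhibition versus compound concentration.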

ShHTL7 [2] = molecular target: T1, ShHTL7; test: ShHTL7-hydrolysis reaction analysis (HPLC); type: biochemical; conditions: 10 μM compound, 30 °C, 30 min; for relative percentage of hydrolysis by ShHTL7, source data average: Supplementary Figs. 11, 20a, 24a
How it was run: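 Compounds at 10 μM were incubated with 10 μg recombinant ShHTL7 or its mutants in PBS (pH 7.3) at 30 °C for 30 min, then quenched with methanol. The remaining compound was quantified by HPLC, and hydrolysis was expressed relative to a protein-free buffer control (n = 3).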

[3] = test system: Arabidopsis thaliana (Col-0); test: Arabidopsis root hair assay; type: in vivo; conditions: Col-0 seedlings on 1/2 MS medium, 1 μM; Supplementary Fig. 15; in µm (unit assumed)
Description: For Arabidopsis root hair assay, Arabidopsis thaliana (Col-0) seeds were surface sterilized by using 1% NaClO solution for 60 s and 75% ethanol solution for 60 s, and then washed by sterilized distilled water five times. The sterilized seeds were sowed on 1/2 MS media (2.202 g/L Murashige and Skoog basal salts, 0.5 g/L MES, 10 g/L sucrose, and 10 g/L agar, pH 5.7) which contained indicated concentrations of compounds. 0.1% DMSO was used as a negative control. The plates were placed 4 days at 4 °C and then placed vertically under fluorescent white light (100–150 μmol m^−2 s^−1) with 16 h light and 8 h dark at 20 ± 1 °C for 15 days[17],[55]. The root hairs were imaged by OLYMPUS (U-HGLGPS), and the lengths were analyzed by ImageJ. The experiments were repeated three times. For Arabidopsis shoot branching assay: Col-0 and max4-1 seeds were used in this experiment. Seeds surface sterilization was sterilized as described above. The Arabidopsis seedlings were placed on top of the cut black microcentrifuge tubes filled with 1/2 MS. The tubes were placed 4 days at 4 °C and then moved to fluorescent white light (100–150 μmol m^−2 s^−1) with 16 h light and 8 h dark at 20 ± 1 °C for 7 days[26]. The germinated seedlings were grown on hydroponic culture solutions (containing indicated concentrations of 4a, (R)- and (S)-4a), with the solution containing 0.01% DMSO as the negative control. The solutions were renewed every week. After 4 weeks, the numbers of rosette axillaries were analyzed.
type Arabidopsis. a, Representative primary root segments of Col-0 seedlings growing on 1/2 MS
medium with or without 1 μM tested chemicals. Scale bar, […]. b, The average length of root
hair is presented as means ± SD (n = 3 biologically independent experiments).
(§1) (1 picture or pasted object on this page, not shown here)

[4] = test system: PaKAI2s (5 KAI2 protein homologs in P. aegyptiaca); test: YLG-based competition assay on KAI2 protein homologs of P. aegyptiaca; type: biochemical, Phelipanche aegyptiaca; conditions: Supplementary Fig. 27
Excerpt: In P. aegyptiaca, 5 KAI2s have been proposed as the SL receptors for the regulation of seed germination. […] The high sequence similarity may explain the consistency of these compounds in inducing germination in both S. hermonthica and P. aegyptiaca.
The excitation and emission wavelengths of YLG are 480 and 520 nm, respectively. We used a fluorescence spectrophotometer (CARY Eclipse) to detect the fluorescence intensity change of YLG during the enzymatic hydrolysis assay process. All the testing compounds and YLG were dissolved in DMSO and prepared as stock solutions just before use. […] The changes of fluorescence at 520 nm of each well were recorded every 1 min for 30 min. Using the reaction mixture without adding enzyme and tested compounds as the background control. After subtracting the background hydrolysis, a linear fluorescence increase in 8 min was used for further inspection. The IC50 values were determined via fitting relative inhibition percentages with the varying concentrations of compounds in Microsoft Excel.
Supplementary Fig. 27. Binding of compounds 4a, (R)- and (S)-4a, and 4g-i to the HTL proteins in S. hermonthica and KAI2 protein homologs in P. aegyptiaca. In the competitive inhibitory activity assay, YLG (3 µM) was used as the fluorogenic substrate. Error bar indicates SD (n = 3 biologically independent experiments).
as §1

[5] = ShHTL7, YLG competition, Supplementary Fig. 27, read-out: IC50, replicate 1
[6] = ShHTL7, YLG competition, Supplementary Fig. 27, read-out: IC50, replicate 2
[7] = ShHTL7, YLG competition, Supplementary Fig. 27, read-out: IC50, replicate 3
[8] = ShHTL7, average of 3 replicates, Supplementary Fig. 27, read-out: IC50, average
[9] = YLG as substrate, text and Fig. 2, read-out: IC50, competitive ShHTL7 inhibition (YLG assay)
[10] = wild-type ShHTL7, average of 3, source data of Fig. 2a,b, Supplementary Figs. 8a, 9a, 20b, read-out: IC50, competitive ShHTL7 inhibition (YLG), source data average
[11] = KAI2C, YLG competition, read-out: IC50, replicate 1
[12] = KAI2C, YLG competition, read-out: IC50, replicate 2
[13] = KAI2C, YLG competition, read-out: IC50, replicate 3
[14] = KAI2C, average of 3 replicates, read-out: IC50, average
[15] = KAI2d1, YLG competition, read-out: IC50, replicate 1
[16] = KAI2d1, YLG competition, read-out: IC50, replicate 2
[17] = KAI2d1, YLG competition, read-out: IC50, replicate 3
[18] = KAI2d1, average of 3 replicates, read-out: IC50, average
[19] = KAI2d2, YLG competition, read-out: IC50, replicate 1
[20] = KAI2d2, YLG competition, read-out: IC50, replicate 2
[21] = KAI2d2, YLG competition, read-out: IC50, replicate 3
[22] = KAI2d2, average of 3 replicates, read-out: IC50, average
[23] = KAI2d3, YLG competition, read-out: IC50, replicate 1
[24] = KAI2d3, YLG competition, read-out: IC50, replicate 2
[25] = KAI2d3, YLG competition, read-out: IC50, replicate 3
[26] = KAI2d3, average of 3 replicates, read-out: IC50, average
[27] = KAI2d4, YLG competition, read-out: IC50, replicate 1
[28] = KAI2d4, YLG competition, read-out: IC50, replicate 2
[29] = KAI2d4, YLG competition, read-out: IC50, replicate 3
[30] = KAI2d4, average of 3 replicates, read-out: IC50, average

T1 sequence (A0A0M3PNA2 entry or part of it): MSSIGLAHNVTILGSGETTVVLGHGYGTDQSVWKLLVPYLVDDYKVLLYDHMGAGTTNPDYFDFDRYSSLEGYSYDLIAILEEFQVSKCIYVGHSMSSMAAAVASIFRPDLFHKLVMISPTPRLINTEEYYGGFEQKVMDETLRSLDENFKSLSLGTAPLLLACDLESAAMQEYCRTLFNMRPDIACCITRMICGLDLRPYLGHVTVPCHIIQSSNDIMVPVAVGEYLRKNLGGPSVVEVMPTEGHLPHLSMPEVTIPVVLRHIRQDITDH

| Structure (SMILES) | IC50 (ShHTL7 [1]; [5]) [µM] | IC50 (ShHTL7 [1]; [6]) [µM] | IC50 (ShHTL7 [1]; [7]) [µM] | IC50 (ShHTL7 [1]; [8]) [µM] | IC50 (ShHTL7 [1]; [9]) [µM] | IC50 (ShHTL7 [1]; [10]) [µM] | hydrolysis by ShHTL7 (ShHTL7 [2]) [%] | relative percentage of hydrolysis by ShHTL7, source data average (ShHTL7 [2]) [%] | average length of root hair, source data average [3] | IC50 [4, 11] [µM] | IC50 [4, 12] [µM] | IC50 [4, 13] [µM] | IC50 [4, 14] [µM] | IC50 [4, 15] [µM] | IC50 [4, 16] [µM] | IC50 [4, 17] [µM] | IC50 [4, 18] [µM] | IC50 [4, 19] [µM] | IC50 [4, 20] [µM] | IC50 [4, 21] [µM] | also measured |
| --- | --- | --- | --- | --- | --- | --- | --- | --- | --- | --- | --- | --- | --- | --- | --- | --- | --- | --- | --- | --- | --- |
| CC1=C[C@@H](OC(=O)N2CCN(C(=O)COc3ccc(Br)cc3C)CC2)OC1=O [(R)-4a] | 40.1 | 33.7 | 33.7 | 35.8 | 35.8 ± 3.69 | 35.8 | 3.1 | 3.081 | 172.727 | 53.2 | 56.3 | 44.7 | 51.4 | > 100 | > 100 | > 100 | > 100 | > 100 | > 100 | > 100 | IC50 [4, 22]: > 100 µM; IC50 [4, 23]: 84.6 µM; IC50 [4, 24]: 78.5 µM; IC50 [4, 25]: 91.5 µM; IC50 [4, 26]: 84.9 µM; IC50 [4, 27]: > 100 µM; IC50 [4, 28]: > 100 µM; IC50 [4, 29]: > 100 µM; IC50 [4, 30]: > 100 µM |
| CC1=C[C@H](OC(=O)N2CCN(C(=O)COc3ccc(Br)cc3C)CC2)OC1=O [(S)-4a] | 1.06 | 0.837 | 0.921 | 0.938 | 0.94 ± 0.11 | 0.938 | 40.1 | 40.0583 | 211.816 | 5.99 | 5.59 | 5.14 | 5.57 | 14.8 | 11.8 | 14.3 | 13.6 | 41.7 | 36.2 | 35.4 | IC50 [4, 22]: 37.8 µM; IC50 [4, 23]: 11.9 µM; IC50 [4, 24]: 8.47 µM; IC50 [4, 25]: 7.99 µM; IC50 [4, 26]: 9.45 µM; IC50 [4, 27]: 6.05 µM; IC50 [4, 28]: 6.25 µM; IC50 [4, 29]: 8.45 µM; IC50 [4, 30]: 6.92 µM |
